Values belong to the compound of their own block, whether it stands above or below them.
Columns and labels:
[1] = test system: A549 Bleomycin-Induced Senescent Cells; assay: Crystal violet cell viability / IC50 assay in bleomycin-induced senescent A549 cells; type: cell-based, human; settings: for IC50: Homo sapiens, A549
Description: Navitoclax (ABT-263, Abbvie) was used as a positive control for senolysis. For chemotherapy-induced senescence we used Bleomycin (Mylan Pharmaceuticals) at 20 µM for 5 days. Alternatively, we also used 5 µM Palbociclib (MedChemExpress) for 7 days. Ionizing radiation at a dose of 10 Gy was applied to induce senescence. Doxycycline (Sigma), a stable tetracycline analogue, was used as an inducer for inducible expression systems at 1 µg/mL. Cell viability was tested by crystal violet staining as reported previously (Feoktistova et al. 2016). Both proliferative and senescent cells from different cell lines were plated at a concentration of 1,2 × 10^4 cells per well in a 96-well plate. After a 24 h incubation period, they were treated with Compound 96558 at decreasing concentrations (with DMSO as the control) and at various time points. […] After staining, the excess dye was removed, washed 3 times with water, and air dried. […] The absorbance was measured using a BioTek microplate reader equipped with Gen5 software. […] Cell viability was evaluated following the previously mentioned protocol of crystal violet staining. The IC50 calculations were performed using GraphPad Prism® software. First, we sought to validate the senolytic potential of the Candidate Compound within the same cell type and under the same conditions of senescence induction as employed during the high-throughput screening. To achieve this, we used A549 cells in which senescence was induced using bleomycin (20 µM; 5 days). Subsequently, following the confirmation of the senescent status of these cells in comparison to the proliferative control (Figure 8A), a cell viability assay was performed, employing crystal violet staining, as detailed in the Materials and Methods section. After evaluating the senolytic activity of the Candidate Compound at the same concentration used in the screening (Figure 9), we conducted further tests using a range of concentrations, from 100 µM to 0.3125 µM, in A549 tumor cells. These tests were performed both in their non-treated (proliferating) state and after the induction of senescence with Bleomycin. In addition, we also assessed the drug's ability to affect cell viability at different time points (24, 48, and 72 hours) by renewing the Compound every 24 hours.

[2] = test system: A549 tumor cells, non-treated (proliferating) state; assay: Crystal violet cell viability / IC50 assay in proliferative A549 cells; type: cell-based, human
Description: (§1) Cell viability was tested by crystal violet staining as reported previously (Feoktistova et al. 2016). Both proliferative and senescent cells from different cell lines were plated at a concentration of 1,2 × 10^4 cells per well in a 96-well plate. After a 24 h incubation period, they were treated with Compound 96558 at decreasing concentrations (with DMSO as the control) and at various time points. Subsequently, cells were washed with phosphate-buffered saline (PBS, Merck) and fixed with paraformaldehyde (Electron Microscopy Science) prepared at 2% in PBS for 15 minutes, followed by a 5 min staining process using a 0.1% crystal violet solution in Milli-Q water. After staining, the excess dye was removed, washed 3 times with water, and air dried. Captured crystal violet was solubilized in 10% acetic acid and incubated on an orbital shaker at room temperature for 10 min. The absorbance was measured using a BioTek microplate reader equipped with Gen5 software.
(§2) Cell viability was evaluated following the previously mentioned protocol of crystal violet staining. The IC50 calculations were performed using GraphPad Prism® software.
(§3) First, we sought to validate the senolytic potential of the Candidate Compound within the same cell type and under the same conditions of senescence induction as employed during the high-throughput screening. To achieve this, we used A549 cells in which senescence was induced using bleomycin (20 µM; 5 days). Subsequently, following the confirmation of the senescent status of these cells in comparison to the proliferative control (Figure 8A), a cell viability assay was performed, employing crystal violet staining, as detailed in the Materials and Methods section.
(§4) After evaluating the senolytic activity of the Candidate Compound at the same concentration used in the screening (Figure 9), we conducted further tests using a range of concentrations, from 100 µM to 0.3125 µM, in A549 tumor cells. […] In addition, we also assessed the drug's ability to affect cell viability at different time points (24, 48, and 72 hours) by renewing the Compound every 24 hours.

[3] = test system: Radiation-Induced senescent A549cells; assay: Crystal violet cell viability / IC50 assay in ionizing radiation-induced senescent A549 cells; type: cell-based, human; settings: for concentration showing enhanced efficacy (greater cytotoxic effect on senescent cells than proliferating): ionizing radiation 10 Gy
Description: (§5) Navitoclax (ABT-263, Abbvie) was used as a positive control for senolysis. For chemotherapy-induced senescence we used Bleomycin (Mylan Pharmaceuticals) at 20 µM for 5 days. Alternatively, we also used 5 µM Palbociclib (MedChemExpress) for 7 days. Ionizing radiation at a dose of 10 Gy was applied to induce senescence. Doxycycline (Sigma), a stable tetracycline analogue, was used as an inducer for inducible expression systems at 1 µg/mL.
as §1, §2
Subsequently, we aimed to assess the senolytic capability of our Compound using a senescence induction method different from the previous chemotherapy-induced approach. In this regard, we exposed A549 cells to ionizing radiation, confirmed the senescent status (Figure 8B) and conducted a similar assay as described previously.

[4] = test system: U87MG cells induced into senescence with palbociclib; assay: Crystal violet cell viability / IC50 assay in palbociclib-induced senescent U87MG cells; type: cell-based, human
Description: as §5
as §1, with “Captured crystal violet was solubilized in 10% acetic acid and incubated on an orbital shaker at room temperature for 10 min.” left out
Cell viability was evaluated following the previously mentioned protocol of crystal violet staining. […]

[5] = test system: U87MG glioma cell line, proliferating cells; assay: Crystal violet cell viability / IC50 assay in proliferating U87MG cells; type: cell-based; settings: Homo sapiens, U-87 MG, read-out: quantity required to eliminate at least 50% of proliferative counterparts
Description: as §1, §2
To thoroughly explore the senolytic potential of Compound 96558, we employed a different human tumor cell line, specifically the U87MG glioma cell line. […]

senescent A549 cells = assay: Apoptosis assay (Annexin V-FITC/7-AAD flow cytometry) in bleomycin-induced senescent A549 cells; type: cell-based, human
Description: (§6) A549 cells were resuspended into a single-cell suspension and plated at a density of 3 × 10^5 cells per well in six-well plates. After culturing for 24 h, the cells were treated with DMSO (control), the Compound, or a combination of pan-caspase inhibitor Z-VAD-FMK (Santa Cruz Biotech.) and the Compound. Following a 24 h incubation with the drugs, the cells were harvested by centrifugation at 3,000 rpm for 5 minutes and washed twice with PBS. Subsequently, the cells were resuspended in 500 µl of binding buffer. Then, 5 µl of Annexin V-FITC and 5 µl of 7-AAD (Elabscience) were used to detect the effect of Compound 96558 on cell apoptosis. The resulting samples were immediately analyzed by flow cytometry (FACScan, BD Biosciences), using the FITC channel (excitation: 488 nm and emission: 525 nm) and the 7-AAD channel (excitation: 488 nm and emission: 670 nm).
(§7) To investigate the potential mechanism of cell death by which the compound eliminates senescent cells, we analyzed apoptosis induction. For this, we conducted a flow cytometry assay to evaluate Annexin-V staining on bleomycin-induced senescent cells treated or not with our senolytic Candidate.

A549 proliferative cells = assay: Apoptosis assay (Annexin V-FITC/7-AAD flow cytometry) in proliferative A549 cells; type: cell-based, human; settings: 10 µM, 24 h
Description: as §6, §7

[6] = Crystal violet cell viability / IC50 assay in proliferative A549 cells; type: cell-based, human; settings: human, A549 tumor cells, non-treated (proliferating); untreated (proliferative) cells, at the tested concentration
Description: as §1, §2, §3, §4

- senolytic index, the ratio between the IC50 values on proliferating cells over senescent ones ([1]; A549, bleomycin, 24, 48, 72 hours): increases with time
- IC50 ([1]; senescent cells, 24-hour): 3730 nM
- IC50 ([1]; senescent cells, 48 hours of treatment): 1830 nM
- IC50 ([1]; senescent cells, 72 hours): 1410 nM
- IC50 values observed for proliferative cells ([2]; compared with senescent cells, 24, 48 and 72 hours): consistently higher
- IC50 ([4]; Homo sapiens, U-87 MG, senescent cells, palbociclib-induced): 1790 nM
Compound: C#CC(=O)NCCNc1nc(C)nc(C)c1Br [Compound 96558]
- concentration with effective cytotoxicity in senescent cells with minimal impact on proliferative cells ([1]; 24 hours, bleomycin 20 µM, 5 days): around 12.5 µM
- concentration effective for favorable senolytic effect ([1]; 48 hours, Compound renewed every 24 hours): 6.25 µM
- most efficient concentration for senolytic effect ([1]; 72 hours, Compound renewed every 24 hours): 3.125 µM
- viability ([1]; senescent cells, low concentrations, 24, 48, and 72 hours): efficient elimination of the senescent cells
- viability ([2]; proliferative cells, low concentrations, 24, 48, and 72 hours): intact viability
- concentration showing enhanced efficacy (greater cytotoxic effect on senescent cells than proliferating) ([3]; 24-hour): approximately 12.5 µM
- concentration showing enhanced efficacy (greater cytotoxic effect on senescent cells than proliferating) ([3]; 48 hours): 2500 nM
- concentration showing enhanced efficacy (greater cytotoxic effect on senescent cells than proliferating) ([3]; 72 hours): 2500 nM
- IC50 curves ([3]; senescent versus proliferative counterparts, all examined conditions): lower Compound concentrations are required for the eradication of senescent cells
- senolytic index ([4]; U87MG, IC50 proliferating over senescent): 16.6
- IC50 [5]: 29800 nM
- apoptosis induction (FITC-Annexin V-positive and 7-AAD positive) (senescent A549 cells; Compound treatment versus DMSO, 24 h): a significant proportion of cells were in late apoptosis
- apoptosis induction (FITC-Annexin V and 7-AAD staining) (senescent A549 cells; combination with pan-caspase inhibitor Z-VAD-FMK): the majority of cells appeared as viable cells
- apoptosis induction (A549 proliferative cells): apoptosis was not induced

Compound: CC1(C)CCC(c2ccc(Cl)cc2)=C(CN2CCN(c3ccc(C(=O)NS(=O)(=O)c4ccc(N[C@H](CCN5CCOCC5)CSc5ccccc5)c(S(=O)(=O)C(F)(F)F)c4)cc3)CC2)C1 [Navitoclax, reference compound]
- viability ([1]; Bleomycin-induced senescent cells, at the tested concentration): significantly affected
- viability [6]: ~100%
